Structures can show the parent of a compound that is named as a salt.
Each molecule was assayed on Aβ 40 production in HEK-293 cells overexpressing swAPP751 (assay: Inhibition of Aβ 40 production in HEK-293 cells overexpressing swAPP751 (sandwich ELISA)). Details: Homo sapiens, HEK293, 7 hours incubation.
Assay type: cell-based
Protocol: An exemplary assay for the analysis of inhibition of beta-secretase activity utilizes the human embryonic kidney cell line HEK-293 (ATCC Accession No. CRL-1573) stably transfected with APP751 containing the naturally occurring double mutation […] to Asn651Leu652 (numbered for APP751), commonly called the “Swedish mutation” and shown to overproduce Aβ 40 and Aβ 42 (Citron et. al., 1992, Nature 360:672-674). The cells were plated in 10 cm plates and in Dulbecco's Modified Eagle's medium (DMEM, Sigma D-6546) containing 10% fetal bovine serum. After cells are established (3 days post plating), cells are incubated in the presence/absence of the inhibitory compound (diluted in DMSO) at the desired concentration, generally from 0.2 to 20 μM, and with a final concentration of DMSO of 0.1%. Cells were incubated for 7 hours in the presence of phosphoramidon (1 μM) (Sigma). Media and cell lysates were collected, centrifuged, normalized to total protein and assayed for Aβ 40 and Aβ 42 by sandwich ELISA according to the manufacturer's instructions (Biosource International). For Aβ 42 detection, samples are concentrated on YM3 Microcon columns (Millipore). […] Aβ levels are determined by the difference between the Aβ values for the compound treatment and baseline periods. Dose response curves are plotted as percent inhibition versus compound concentration.

SMILES	IC50 [µM]
FC(F)(F)c1ccc2c(SCCCCCOc3ccc(CN4CCNCC4)cc3)ccnc2c1 [Compound 1, 4-(5-(4-((piperazin-1-yl)methyl)phenoxy)pentylthio)-7-(trifluoromethyl)quinoline trihydrochloride]	11.6
CCN(CC)C(=O)N1CCN(Cc2ccc(OCCCCCSc3ccnc4cc(C(F)(F)F)ccc34)cc2)CC1 [Compound 2, 4-((4-(5-(7-(trifluoromethyl)quinolin-4-ylthio)pentyloxy)phenyl)methyl)-N,N-diethylpiperazine-1-carboxamide dihydrochloride]	2.4
CC(C)(C)C(=O)N1CCN(Cc2ccc(OCCCCCSc3ccnc4cc(C(F)(F)F)ccc34)cc2)CC1 [Compound 3, 1-(4-((4-(5-(7-(trifluoromethyl)quinolin-4-ylthio)pentyloxy)phenyl)methyl)piperazin-1-yl)-2,2-dimethylpropan-1-one dihydrochloride]	1.9
FC(F)(F)c1ccc2c(SCCCCCOc3ccc(CN4CCCCC4)cc3)ccnc2c1 [Compound 5, 4-(5-(4-((piperidin-1-yl)methyl)phenoxy)pentylthio)-7-(trifluoromethyl)quinoline dihydrochloride]	5.16
FC(F)(F)c1ccc2c(SCCCCCOc3ccc(CN4CCOCC4)cc3)ccnc2c1 [Compound 8, 4-(5-(4-(morpholinomethyl)phenoxy)pentylthio)-7-(trifluoromethyl)quinoline dihydrochloride]	5.13
FC(F)(F)c1ccc2c(SCCCCCOc3ccc(CN4CCCCC4)cc3Cl)ccnc2c1 [Compound 10, 4-(5-(2-Chloro-4-((piperidin-1-yl)methyl)phenoxy)pentylthio)-7-(trifluoromethyl)quinoline dihydrochloride]	8.5
O=[N+]([O-])c1cc(CN2CCCCC2)ccc1OCCCCCSc1ccnc2cc(C(F)(F)F)ccc12 [Compound 11, 4-(5-(2-nitro-4-((piperidin-1-yl)methyl)phenoxy)pentylthio)-7-(trifluoromethyl)quinoline dihydrochloride]	2.45
OCc1ccc(OCCCCCSc2ccnc3cc(C(F)(F)F)ccc23)cc1 [Compound 12, (4-(5-(7-(trifluoromethyl)quinolin-4-ylthio)pentyloxy)phenyl)methanol hydrochloride]	7.3
Nc1cc(CN2CCCCC2)ccc1OCCCCCSc1ccnc2cc(C(F)(F)F)ccc12 [Compound 13, 2-(5-(7-(Trifluoromethyl)quinolin-4-ylthio)pentyloxy)-5-((piperidin-1-yl)methyl)benzenamine trihydrochloride]	8.26
CCOC(=O)[C@H](Cc1ccc(OCCCCCSc2ccnc3cc(C(F)(F)F)ccc23)cc1)NC(C)=O [Compound 14, (S)-ethyl 3-(4-(5-(7-(trifluoromethyl)quinolin-4-ylthio)pentyloxy)phenyl)-2-acetamidopropanoate hydrochloride]	0.72
CCn1ncc2c(OCCCCCSc3ccnc4cc(C(F)(F)F)ccc34)ccnc21 [Compound 19, 4-(5-(1-Ethyl-1H-pyrazolo[3,4-b]pyridin-4-yloxy)pentylthio)-7-(trifluoromethyl)quinoline dihydrochloride]	15.5
COc1cc(CN2CCOCC2)ccc1OCCCCCOc1ccnc2cc(Cl)ccc12 [Compound 22, 4-(5-(2-Methoxy-4-(morpholinomethyl)phenoxy)pentyloxy)-7-chloroquinoline dihydrochloride]	9.3
Clc1ccc2c(OCCCCCOc3ccc(CN4CCOCC4)cc3)ccnc2c1 [Compound 23, 4-(5-(4-(morpholinomethyl)phenoxy)pentyloxy)-7-chloroquinoline dihydrochloride]	2.5
COc1cc(CN2CCOCC2)ccc1OCCCCCSc1ccnc2cc(C(F)(F)F)ccc12 [Compound 24, 4-(5-(2-methoxy-4-(morpholinomethyl)phenoxy)pentylthio)-7-(trifluoromethyl)quinoline dihydrochloride]	9.9

Reference: patent US20090118282A1, “Compounds and methods for treatment of amyloid-beta-peptide related disorders” (priority 2005, published 2009)
